These compounds were tested on MAPK phosphorylation (assay: MAPK cell-based phosphorylation assay (ELISA or Western), PANC-1). Settings: Homo sapiens; 10 μM, 6 hours, EGF stimulation, PANC-1.
Description: Cell lines: Tumor-derived pancreatic cancer cell line PANC-1 was purchased from ATCC and were and grown in DMEM-High Glucose supplemented with penicillin (100 U/mL), streptomycin (100 μg/mL), and 10% heat-inactivated FBS at 37° C. in a humidified incubator with 5% CO2.
Method: Cells were plated at 7500 cells/well density in a 96-well plate, allowed 3 hours to adhere to the plate, then starved in DMEM plus 0.5% FBS overnight. The small molecules to be tested were added to the cells in the final concentration of 10 μM in the presence of 0.3% DMSO for 6 hours incubation at 37° C. For IC50 value determination, serial dilutions of compounds were added to cells under the same conditions. Next, cells were stimulated with 1.5 ng/mL EGF for 15 minutes followed by cell fixation with 4% formaldehyde in PBS at room temperature for 20 minutes. Cell-direct ELISA determined phosphorylation level of MAPK.
Cell-direct ELISA: For each well, cells were permeabilized with 0.1% PBS-Triton X-100, quenched with 0.06% H2O2 in 0.1% PBS-Triton X-100, and probed with anti-phospho-MAPK antibodies (R&D Systems) followed by HRP-conjugated secondary antibody (Jackson Immunoresearch, West Grove, PA). Next, a 50 μM solution of the fluorescent substrate AmpliFlu Red (Sigma) was added and incubated at RT for 20 minutes. At the end of the incubation time, phosphorylation level of MAPK was determined by measuring fluorescence at 595 nm using SpectraMax M3 plate reader (Molecular Devices).
Cell lines: Human NSCLC cells NCI-H1975 and NCI-H1299, and tumor-derived pancreatic cancer cell lines Panc-1, MIA-PaCa-2, and BxPC3, were all purchased from American Type Culture Collection and grown in complete RPMI medium (BxPC3, NCI-H1975 and NCI-H1299) or DMEM-High Glucose (Panc1 and MIA-PaCa-2), supplemented with penicillin (100 U/mL), streptomycin (100 μg/mL), and 10% heat-inactivated FBS at 37° C. in a humidified incubator with 5% CO2.
(§1) Method: Cells were plated at 350000 cells/well density in a 12-well plate, allowed 3 hours to adhere to the plate, then starved in the appropriate medium in the presence of 0.5% FBS overnight. The small molecules to be tested were added to the cells in the final concentration of 10 μM in the presence of 0.3% DMSO for 6 hours incubation at 37° C. For IC50 value determination, serial dilutions of compounds were added to cells under the same conditions. Next, cells were stimulated with 1.5 ng/ml EGF for 15 minutes then cells were lysed with lysis buffer containing 1% Triton X-100, EDTA, and Halt™ Protease & Phosphatase Inhibitor Cocktail (Thermo Scientific). Protein concentration was assessed by BCA protein assay (Thermo Scientific). Phosphorylation level of MAPK was determined by western blot.
(§2) Western blot protocol: Equal amounts of protein (15-50 μg) were separated by SDS-PAGE and transferred to nitrocellulose membranes (Invitrogen by Thermo Fisher Scientific). The membrane was stained with Ponceau S Stain (Boston BioProducts) to verify uniform protein loading. Membranes were blocked with 10% milk and phosphorylation levels of MAPK were assessed by incubating overnight at 4° C. with anti-phospho-p44/42 (Thr202/Tyr204) antibody (Cell Signaling) followed by HRP-conjugated secondary antibody (Jackson Immunoresearch, West Grove, PA). Bands were incubated in Amersham ECL Prime Western Blotting Detection Reagent (GE Healthcare) and visualized using the ChemiDoc MP imaging system (Bio-Rad).

| SMILES | inhibition at 10 µM [%] |
| --- | --- |
| COC1CCN(c2nc(-c3nccn3C)nc3sc(-c4ccnn4C)c(-c4ccccc4)c23)C1 (centres unmarked) [drawing 428] | 0 |
| COC1CCN(c2nc(-c3nccn3C)nc3sc(-c4cccnc4)c(-c4ccccc4)c23)C1 (centres unmarked) [drawing 429] | 51 to 75 |
| COc1ccc(-c2sc3nc(-c4nccn4C)nc(N4CCC(OC)C4)c3c2-c2ccccc2)cn1 (centres unmarked) [drawing 430] | 1 to 25 |
| COc1ncccc1-c1sc2nc(-c3nccn3C)nc(N3CCC(OC)C3)c2c1-c1ccccc1 (centres unmarked) [drawing 431] | 76 to 100 |
| COC1CCN(c2nc(-c3nccn3C)nc3sc(-c4cnc(C5CC5)o4)c(-c4ccccc4)c23)C1 (centres unmarked) [drawing 432] | 51 to 75 |
| COCCn1cc(-c2sc3nc(-c4nccn4C)nc(N4CCC(OC)C4)c3c2-c2ccccc2)cn1 (centres unmarked) [drawing 433] | 51 to 75 |
| COC1CCN(c2nc(-c3nccn3C)nc3sc(-c4ccncc4C)c(-c4ccccc4)c23)C1 (centres unmarked) [drawing 434] | 0 |
| COC1CCN(c2nc(-c3nccn3C)nc3sc(-c4cnn(C)c4)c(-c4ccccc4)c23)C1 (centres unmarked) [drawing 435] | 1 to 25 |
| COC1CCN(c2nc(-c3nccn3C)nc3sc(-c4ccc(CO)cc4)c(-c4ccccc4)c23)C1 (centres unmarked) [drawing 436] | 51 to 75 |
| COC1CCN(c2nc(-c3nccn3C)nc3sc(-c4ccc(N)nc4C)c(-c4ccccc4)c23)C1 (centres unmarked) [drawing 437] | 26 to 50 |
| COC1CCN(c2nc(-c3nccn3C)nc3sc(-c4ccccc4CO)c(-c4ccccc4)c23)C1 (centres unmarked) [drawing 438] | 0 |
| COc1nscc1-c1sc2nc(-c3nccn3C)nc(N3CCC(OC)C3)c2c1-c1ccccc1 (centres unmarked) [drawing 439] | 51 to 75 |
| COC1CCN(c2nc(-c3nccn3C)nc3sc(-c4ccnc(N(C)C)c4)c(-c4ccccc4)c23)C1 (centres unmarked) [drawing 440] | 76 to 100 |
| COC1CCN(c2nc(-c3nccn3C)nc3sc(Br)c(-c4ccccc4)c23)C1 (centres unmarked) [drawing 441] | 26 to 50 |
| COc1ccc(-c2c(-c3cccc(OC)c3F)sc3nc(-c4nccn4C)nc(N4CCC(OC)C4)c23)cc1 (centres unmarked) [drawing 442] | 0 |
| COCC1CN(c2nc(-c3nccn3C)nc3sc(-c4cccc(OC)c4F)c(-c4ccc(OC)cc4)c23)C1 [drawing 443] | 76 to 100 |
| COc1cccc(-c2sc3nc(-c4nccn4C)nc(N4CCC(OC)C4)c3c2-c2ccccc2)c1F (centres unmarked) [drawing 444] | 76 to 100 |
| COc1c(O)nc(-c2ccccn2)nc1Oc1cnn(C)c1 [drawing 445] | 1 to 25 |
| COc1c(O)nc(-c2ccccn2)nc1Oc1ccc2ncccc2c1 [drawing 446] | 0 |

| SMILES | inhibition at 10 µM [%] |
| --- | --- |
| COc1c(O)nc(-c2ccccn2)nc1Oc1cccnc1 [drawing 447] | 0 |
| COc1cccc(Oc2nc(-c3ccccn3)nc(O)c2OC)c1 [drawing 448] | 0 |
| COc1ccc(Oc2nc(-c3ccccn3)nc(O)c2OC)cc1 [drawing 449] | 0 |
| COCCc1ccc(Oc2nc(-c3ccccn3)nc(O)c2OC)cc1 [drawing 450] | 0 |
| COc1c(O)nc(-c2ccccn2)nc1Oc1ccccc1 [drawing 451] | 0 |
| O=C(c1nc(-c2ccccn2)nc(O)c1O)N1CCc2ccccc2C1 [drawing 452] | 0 |
| O=C(c1nc(-c2ccccn2)nc(O)c1O)N1CCOCC1 [drawing 453] | 0 |
| CN(Cc1ccccc1)C(=O)c1nc(-c2ccccn2)nc(O)c1O [drawing 454] | 0 |
| O=C(NCc1ccccc1)c1nc(-c2ccccn2)nc(O)c1O [drawing 455] | 1 to 25 |
| O=C(c1nc(-c2ccccn2)nc(O)c1O)N1CCCC1 [drawing 456] | 0 |
| O=C(NC1CCCC1)c1nc(-c2ccccn2)nc(O)c1O [drawing 457] | 0 |
| CC(C)CN(C)C(=O)c1nc(-c2ccccn2)nc(O)c1O [drawing 458] | 0 |
| CC(C)CNC(=O)c1nc(-c2ccccn2)nc(O)c1O [drawing 459] | 0 |
| COCCN(C)C(=O)c1nc(-c2ccccn2)nc(O)c1O [drawing 460] | 0 |
| O=C(NC1CCC1)c1nc(-c2ccccn2)nc(O)c1O [drawing 461] | 0 |
| CC(C)NC(=O)c1nc(-c2nccn2C)nc(O)c1O [drawing 462] | 0 |
| CCN(CC)C(=O)c1nc(-c2nccn2C)nc(O)c1O [drawing 463] | 0 |
| Cn1ccnc1-c1nc(O)c(O)c(C(=O)N2CCCC2)n1 [drawing 464] | 0 |

Each compound was assayed on AKT phosphorylation (assay: Western AKT cell-based phosphorylation assay, PANC-1). Settings: Homo sapiens, 6 hours, EGF stimulation, PANC-1.
Description: Human tumor-derived pancreatic cancer cell line Panc-1 was purchased from American Type Culture Collection and grown in complete DMEM-High Glucose supplemented with penicillin (100 U/mL), streptomycin (100 μg/mL), and 10% heat-inactivated FBS at 37° C. in a humidified incubator with 5% CO2.
as §1, with “C.” for “C. For IC50 value determination, serial dilutions of compounds were added to cells under the same conditions.”, “Akt” for “MAPK”
as §2, with “Akt” for “MAPK”, “anti-phospho-Akt (Ser473)” for “anti-phospho-p44/42 (Thr202/Tyr204)”

| SMILES | inhibition at 10 µM [%] |
| --- | --- |
| COC1CCN(c2nc(-c3nccn3C)nc3sc(-c4ccnn4C)c(-c4ccccc4)c23)C1 (centres unmarked) [drawing 428] | 0 |
| COC1CCN(c2nc(-c3nccn3C)nc3sc(-c4cccnc4)c(-c4ccccc4)c23)C1 (centres unmarked) [drawing 429] | 0 |
| COc1ccc(-c2sc3nc(-c4nccn4C)nc(N4CCC(OC)C4)c3c2-c2ccccc2)cn1 (centres unmarked) [drawing 430] | 0 |
| COc1ncccc1-c1sc2nc(-c3nccn3C)nc(N3CCC(OC)C3)c2c1-c1ccccc1 (centres unmarked) [drawing 431] | 0 |
| COC1CCN(c2nc(-c3nccn3C)nc3sc(-c4cnc(C5CC5)o4)c(-c4ccccc4)c23)C1 (centres unmarked) [drawing 432] | 0 |
| COCCn1cc(-c2sc3nc(-c4nccn4C)nc(N4CCC(OC)C4)c3c2-c2ccccc2)cn1 (centres unmarked) [drawing 433] | 0 |
| COC1CCN(c2nc(-c3nccn3C)nc3sc(-c4ccncc4C)c(-c4ccccc4)c23)C1 (centres unmarked) [drawing 434] | 0 |
| COC1CCN(c2nc(-c3nccn3C)nc3sc(-c4cnn(C)c4)c(-c4ccccc4)c23)C1 (centres unmarked) [drawing 435] | 0 |
| COC1CCN(c2nc(-c3nccn3C)nc3sc(-c4ccc(CO)cc4)c(-c4ccccc4)c23)C1 (centres unmarked) [drawing 436] | 0 |
| COC1CCN(c2nc(-c3nccn3C)nc3sc(-c4ccc(N)nc4C)c(-c4ccccc4)c23)C1 (centres unmarked) [drawing 437] | 0 |
| COC1CCN(c2nc(-c3nccn3C)nc3sc(-c4ccccc4CO)c(-c4ccccc4)c23)C1 (centres unmarked) [drawing 438] | 0 |
| COc1nscc1-c1sc2nc(-c3nccn3C)nc(N3CCC(OC)C3)c2c1-c1ccccc1 (centres unmarked) [drawing 439] | 0 |
| COC1CCN(c2nc(-c3nccn3C)nc3sc(-c4ccnc(N(C)C)c4)c(-c4ccccc4)c23)C1 (centres unmarked) [drawing 440] | 0 |
| COC1CCN(c2nc(-c3nccn3C)nc3sc(Br)c(-c4ccccc4)c23)C1 (centres unmarked) [drawing 441] | 0 |
| COc1ccc(-c2c(-c3cccc(OC)c3F)sc3nc(-c4nccn4C)nc(N4CCC(OC)C4)c23)cc1 (centres unmarked) [drawing 442] | 0 |
| COCC1CN(c2nc(-c3nccn3C)nc3sc(-c4cccc(OC)c4F)c(-c4ccc(OC)cc4)c23)C1 [drawing 443] | 0 |
| COc1cccc(-c2sc3nc(-c4nccn4C)nc(N4CCC(OC)C4)c3c2-c2ccccc2)c1F (centres unmarked) [drawing 444] | 76 to 100 |
| COc1c(O)nc(-c2ccccn2)nc1Oc1cnn(C)c1 [drawing 445] | 0 |
| COc1c(O)nc(-c2ccccn2)nc1Oc1ccc2ncccc2c1 [drawing 446] | 0 |

| SMILES | inhibition at 10 µM [%] |
| --- | --- |
| COc1c(O)nc(-c2ccccn2)nc1Oc1cccnc1 [drawing 447] | 0 |
| COc1cccc(Oc2nc(-c3ccccn3)nc(O)c2OC)c1 [drawing 448] | 0 |
| COc1ccc(Oc2nc(-c3ccccn3)nc(O)c2OC)cc1 [drawing 449] | 0 |
| COCCc1ccc(Oc2nc(-c3ccccn3)nc(O)c2OC)cc1 [drawing 450] | 0 |
| COc1c(O)nc(-c2ccccn2)nc1Oc1ccccc1 [drawing 451] | 0 |
| O=C(c1nc(-c2ccccn2)nc(O)c1O)N1CCc2ccccc2C1 [drawing 452] | 0 |
| O=C(c1nc(-c2ccccn2)nc(O)c1O)N1CCOCC1 [drawing 453] | 0 |
| CN(Cc1ccccc1)C(=O)c1nc(-c2ccccn2)nc(O)c1O [drawing 454] | 0 |
| O=C(NCc1ccccc1)c1nc(-c2ccccn2)nc(O)c1O [drawing 455] | 0 |
| O=C(c1nc(-c2ccccn2)nc(O)c1O)N1CCCC1 [drawing 456] | 0 |
| O=C(NC1CCCC1)c1nc(-c2ccccn2)nc(O)c1O [drawing 457] | 0 |
| CC(C)CN(C)C(=O)c1nc(-c2ccccn2)nc(O)c1O [drawing 458] | 0 |
| CC(C)CNC(=O)c1nc(-c2ccccn2)nc(O)c1O [drawing 459] | 0 |
| COCCN(C)C(=O)c1nc(-c2ccccn2)nc(O)c1O [drawing 460] | 0 |
| O=C(NC1CCC1)c1nc(-c2ccccn2)nc(O)c1O [drawing 461] | 0 |
| CC(C)NC(=O)c1nc(-c2nccn2C)nc(O)c1O [drawing 462] | 0 |
| CCN(CC)C(=O)c1nc(-c2nccn2C)nc(O)c1O [drawing 463] | 0 |
| Cn1ccnc1-c1nc(O)c(O)c(C(=O)N2CCCC2)n1 [drawing 464] | 0 |
